Data: ChEMBL document CHEMBL3045398, “Fungicidal activities of cyflufenamid against various plant-pathogenic fungi” (J Pestic Sci, 2006)

Legend:
[1] = test system: Blumeria graminis f. sp. tritici; assay: Fungicidal activity against Blumeria graminis f. sp. tritici on wheat leaves assessed as rate of appressorium formation measured at 0.2 ppm after 168 hr; type: functional
[2] = test system: Blumeria graminis f. sp. tritici; assay: Fungicidal activity against Blumeria graminis f. sp. tritici on wheat leaves assessed as rate of appressorium formation measured at 0.8 ppm after 168 hr; type: functional
[3] = test system: Blumeria graminis f. sp. tritici; assay: Fungicidal activity against Blumeria graminis f. sp. tritici on wheat leaves assessed as rate of appressorium formation measured at 3.1 ppm after 168 hr; type: functional
[4] = test system: Blumeria graminis f. sp. tritici; assay: Fungicidal activity against Blumeria graminis f. sp. tritici on wheat leaves assessed as rate of appressorium formation measured at 12.5 ppm after 168 hr; type: functional
[5] = test system: Colletotrichum gloeosporioides; assay: Fungicidal activity against Glomerella cingulata assessed as inhibition of mycelial growth measured after 3 to 20 days by agar dilution method; type: functional, organism-based
Fusarium graminearum [6] = assay: (§1) Fungicidal activity against Fusarium graminearum assessed as inhibition of mycelial growth measured after 3 to 20 days by agar dilution method; type: functional, organism-based
Fusarium graminearum [7] = assay: as §1; type: functional, organism-based; remark: listed apart in the source
Fusarium oxysporum = assay: Fungicidal activity against Fusarium oxysporum assessed as inhibition of mycelial growth measured after 3 to 20 days by agar dilution method; type: functional, organism-based
Microdochium nivale = assay: Fungicidal activity against Microdochium nivale assessed as inhibition of mycelial growth measured after 3 to 20 days by agar dilution method; type: functional, organism-based
Fulvia fulva = assay: Fungicidal activity against Fulvia fulva assessed as inhibition of mycelial growth measured after 3 to 20 days by agar dilution method; type: functional, organism-based
Elsinoe ampelina = assay: Fungicidal activity against Elsinoe ampelina assessed as inhibition of mycelial growth measured after 3 to 20 days by agar dilution method; type: functional, organism-based
Diaporthe citri = assay: Fungicidal activity against Diaporthe citri assessed as inhibition of mycelial growth measured after 3 to 20 days by agar dilution method; type: functional, organism-based
Discula theae-sinensis = assay: Fungicidal activity against Discula theae-sinensis assessed as inhibition of mycelial growth measured after 3 to 20 days by agar dilution method; type: functional, organism-based, Sinodiscula theae-sinensis
Colletotrichum lagenaria = assay: Fungicidal activity against Colletotrichum lagenaria assessed as inhibition of mycelial growth measured after 3 to 20 days by agar dilution method; type: functional, organism-based
Bipolaris oryzae = assay: Fungicidal activity against Bipolaris oryzae assessed as inhibition of mycelial growth measured after 3 to 20 days by agar dilution method; type: functional, organism-based
Cercospora = assay: Fungicidal activity against Cercospora theae assessed as inhibition of mycelial growth measured after 3 to 20 days by agar dilution method; type: functional, organism-based
Cladosporium cucumerinum = assay: Fungicidal activity against Cladosporium cucumerinum assessed as inhibition of mycelial growth measured after 3 to 20 days by agar dilution method; type: functional, organism-based
Cercospora kikuchii = assay: Fungicidal activity against Cercospora kikuchii assessed as inhibition of mycelial growth measured after 3 to 20 days by agar dilution method; type: functional, organism-based
Cercospora beticola = assay: Fungicidal activity against Cercospora beticola assessed as inhibition of mycelial growth measured after 3 to 20 days by agar dilution method; type: functional, organism-based
Botrytis squamosa = assay: Fungicidal activity against Botryotinia squamosa assessed as inhibition of mycelial growth measured after 3 to 20 days by agar dilution method; type: functional, organism-based
Botryosphaeria = assay: Fungicidal activity against Botryosphaeria sp. assessed as inhibition of mycelial growth measured after 3 to 20 days by agar dilution method; type: functional, organism-based
Botrytis cinerea [8] = assay: Fungicidal activity against Botryotinia fuckeliana assessed as inhibition of mycelial growth measured after 3 to 20 days by agar dilution method; type: functional, organism-based
Alternaria alternata = assay: Fungicidal activity against Alternaria alternata apple pathotype assessed as inhibition of mycelial growth measured after 3 to 20 days by agar dilution method; type: functional, organism-based
Podosphaera pannosa = assay: Fungicidal activity against Podosphaera pannosa in rose assessed as powdery mildew disease control measured after 7 to 10 days by pot test; type: functional
Podosphaera leucotricha = assay: Fungicidal activity against Podosphaera leucotricha in apple assessed as powdery mildew disease control measured after 7 to 10 days by pot test; type: functional
Erysiphe necator = assay: Fungicidal activity against Erysiphe necator in grape assessed as powdery mildew disease control measured after 7 to 10 days by pot test; type: functional
[9] = test system: Blumeria graminis f. sp. tritici; assay: Fungicidal activity against Blumeria graminis f. sp. tritici in wheat assessed as powdery mildew disease control measured after 7 to 10 days by pot test; type: functional
Podosphaera aphanis = assay: Fungicidal activity against Podosphaera aphanis var. aphanis in strawberry assessed as powdery mildew disease control measured after 7 to 10 days by pot test; type: functional
Leveillula taurica = assay: Fungicidal activity against Leveillula taurica in sweet pepper assessed as powdery mildew disease control measured after 7 to 10 days by pot test; type: functional; details: Phyllactinia taurica
Podosphaera fusca = assay: Fungicidal activity against Sphaerotheca cucurbitae in cucumber assessed as powdery mildew disease control measured after 7 to 10 days by pot test; type: functional
Venturia inaequalis = assay: Fungicidal activity against Venturia inaequalis on apple (Malus pumila var. domestica, cv. Rall's Janett) assessed as scab control at 200 ppm measured after 5 to 10 days; type: functional
Plasmopara viticola = assay: Fungicidal activity against Plasmopara viticola on grape (Vitis vinifera, cv.Kousyu) assessed as downy mildew disease control at 200 ppm measured after 5 to 10 days; type: functional
Phytophthora infestans = assay: Fungicidal activity against Phytophthora infestans on tomato (Lycopersicon esculentum, cv. Regina) assessed as late blight disease control at 200 ppm measured after 5 to 10 days; type: functional
[10] = test system: Blumeria graminis f. sp. tritici; assay: Fungicidal activity against Blumeria graminis f. sp. tritici on wheat (Triticum aestivum, cv. Chihoku) assessed as powdery mildew disease control at 50 ppm measured after 5 to 10 days; type: functional
Botrytis cinerea [11] = assay: Fungicidal activity against Botryotinia fuckeliana on kidney bean (Phaseolus vulgaris, cv. Nagauzura) assessed as grey mold disease control at 200 ppm measured after 5 to 10 days; type: functional
[12] = test system: Blumeria graminis f. sp. tritici; assay: Fungicidal activity against Blumeria graminis f. sp. tritici on wheat (Triticum aestivum, cv. Chihoku) assessed as powdery mildew disease control at 0.01 ppm measured after 5 to 10 days; type: functional
[13] = test system: Blumeria graminis f. sp. tritici; assay: Fungicidal activity against Blumeria graminis f. sp. tritici on wheat (Triticum aestivum, cv. Chihoku) assessed as powdery mildew disease control at 0.05 ppm measured after 5 to 10 days; type: functional
[14] = test system: Blumeria graminis f. sp. tritici; assay: Fungicidal activity against Blumeria graminis f. sp. tritici on wheat (Triticum aestivum, cv. Chihoku) assessed as powdery mildew disease control at 0.2 ppm measured after 5 to 10 days; type: functional
[15] = test system: Blumeria graminis f. sp. tritici; assay: Fungicidal activity against Blumeria graminis f. sp. tritici on wheat (Triticum aestivum, cv. Chihoku) assessed as powdery mildew disease control at 0.8 ppm measured after 5 to 10 days; type: functional
[16] = test system: Blumeria graminis f. sp. tritici; assay: Fungicidal activity against Blumeria graminis f. sp. tritici on wheat (Triticum aestivum, cv. Chihoku) assessed as powdery mildew disease control at 3.1 ppm measured after 5 to 10 days; type: functional
[17] = test system: Blumeria graminis f. sp. tritici; assay: Fungicidal activity against Blumeria graminis f. sp. tritici on wheat (Triticum aestivum, cv. Chihoku) assessed as powdery mildew disease control at 12.5 ppm measured after 5 to 10 days; type: functional
[18] = test system: Blumeria graminis f. sp. tritici; assay: Fungicidal activity against Blumeria graminis f. sp. tritici on wheat (Triticum aestivum, cv. Chihoku) assessed as powdery mildew disease control at 200 ppm measured after 5 to 10 days; type: functional

## O=C(Cc1ccccc1)N/C(=N\OCC1CC1)c1c(C(F)(F)F)ccc(F)c1F [CYFLUFENAMID]
[1]
  inhibition at 0.2 ppm: 80.1%
[2]
  inhibition at 0.8 ppm: 99.4%
[3]
  inhibition at 3.1 ppm: 99.9%
[4]
  inhibition at 12.5 ppm: 100%
[5]
  EC50: > 100 ppm
Fusarium graminearum [6]
  EC50: > 100 ppm
Fusarium graminearum [7]
  EC50: > 100 ppm
Fusarium oxysporum
  EC50: > 100 ppm
Microdochium nivale
  EC50: 0.3 ppm
Fulvia fulva
  EC50: > 100 ppm
Elsinoe ampelina
  EC50: 5 ppm
Diaporthe citri
  EC50: 6 ppm
Discula theae-sinensis
  EC50: > 100 ppm
Colletotrichum lagenaria
  EC50: > 100 ppm
Bipolaris oryzae
  EC50: > 100 ppm
Cercospora
  EC50: > 100 ppm
Cladosporium cucumerinum
  EC50: > 100 ppm
Cercospora kikuchii
  EC50: 1 ppm
Cercospora beticola
  EC50: 0.3 ppm
Botrytis squamosa
  EC50: > 100 ppm
Botryosphaeria
  EC50: 0.07 ppm
Botrytis cinerea [8]
  EC50: > 100 ppm
Alternaria alternata
  EC50: > 100 ppm
Podosphaera pannosa
  MIC: < 1.6 µg/mL
Podosphaera leucotricha
  MIC: < 1.6 µg/mL
Erysiphe necator
  MIC: < 1.6 µg/mL
[9]
  MIC: < 0.8 µg/mL
Podosphaera aphanis
  MIC: < 0.8 µg/mL
Leveillula taurica
  MIC: < 0.8 µg/mL
Podosphaera fusca
  MIC: < 0.8 µg/mL
Venturia inaequalis
  Efficacy: 0%
Plasmopara viticola
  Efficacy: 0%
Phytophthora infestans
  Efficacy: 0%
[10]
  Efficacy: 100%
Botrytis cinerea [11]
  Efficacy: 0%
[12]
  Efficacy: 6%
[13]
  Efficacy: 30%
[14]
  Efficacy: 66%
[15]
  Efficacy: 100%
[16]
  Efficacy: 100%
[17]
  Efficacy: 100%
[18]
  Efficacy: 100%
